The values below come from patent US11925669B2, “Chinese herbal medicine composition having a function of reducing uric acid” (Infinitus (China) Company Ltd., priority 2013, dated 2024).

SMILES strings stand for the structures. Marks after values point to notes of the source that are not given here.

Data set [1] has as its system rat model of hyperuricemia. Kind of data set: Reducing uric acid in the rat model of hyperuricemia (Oteracil potassium), 30 d intragastric administration. In kind it is in vivo, SD Rat. The settings on record: for UA Reduction: day 30, calculated in comparison with Model control group. An excerpt:
Examine the effect of the Chinese herbal composition of the present invention for reducing uric acid in the rat model of hyperuricemia. Animals were assigned randomly into: Blank control group, Sample control group, Model control group, Test group, and Positive control group. Each group consisted of 10 animals. […] They were randomly assigned into 5 groups, each group consisting of 10 animals, the body weight distribution of each group of rats is similar. […] Blank control group was administrated with 17 ml/kg of distilled water intragastrically every afternoon, Sample control group was administrated with 17 ml/kg of test sample intragastrically every afternoon, Model control group was administrated with distilled water intragastrically in the afternoon, Positive control group was administrated with allopurinol intragastrically in the afternoon, and Test group was administrated with 17 ml/kg of test sample intragastrically in the afternoon. Additionally, for Model control group, Positive control group and Test group, each group was administrated with Oteracil potassium intragastrically every morning. The administration was conducted daily for 30 days. Prior to experiments, the rats were fastened for 12 h (but water was provided) and then about 1 ml of blood were taken from orbital veniplex with glass capillary tube. Sera were separated for measuring the pre-testing level of uric acid. On day 30, blood were taken in the same manner and sera were separated for measuring the serum levels of uric acid, creatinine, and urea nitrogen. Modeling principle: Rats were intragastrically administrated with Oteracil potassium, a chemical inhibitor of uricase, to inhibit the activity of uricase in the body of rats, rendering uric acid in the body of rats unable to breakdown, causing the accumulation of uric acid produced in the serum, so as to produce a rat model of hyperuricemia. Model control group: 17 ml/kg*d of distilled water was administrated intragastrically, once daily for 30 days; Test sample prevention group: 17 ml/kg*d of test sample was administrated intragastrically, once daily for 30 days; Positive control group: 17 ml/kg*d of positive control allopurinolis administrated intragastrically, once daily for 30 days. Observation of Body weight: The growing condition of animals were observed by weighing prior to administration and on Day 30 of administration. Blood were taken prior to administration and on Day 30 of administration to measure uric acid, creatinine, urea nitrogen, to calculate the changing rate of uric acid level in serum. The changing rate of uric acid in serum=(uric acid value in serum after experiment-uric acid value in serum prior to experiment)/uric acid value in serum prior to […]100% ANOVA (analysis of variance) was used. Firstly, homogeneous variance test was carried out, and F values were calculated.

In data set [2] the test system is rat model of hyperuricemia. The description is as above. The note with it: hyperuricemia model rats, X ± S. It counts as in vivo, SD Rat.
Setting [3] is: hyperuricemia model rats, intragastric once daily, day 30, X ± S.

Take `Oc1ncnc2[nH]ncc12` [allopurinol]: the 30 d weight in data set [1] (hyperuricemia model rats, body weight after 30 days, X ± S) is 254.4 ± 23.1 g. In addition, the “UA Reduction” value in data set [1] (hyperuricemia model rats) was 53.4%. Also, the “UA Reduction” value in data set [1] (hyperuricemia model rats, listed as Positive control) is “↓53.4%”. For the same molecule, in data set [1] (setting [3]), the BUN level in the sera of rats upon 30 d administration turned out to be 5.53 ± 0.79 mM and the “UA level in the sera of rats upon 30 d administration” value was 63.20 ± 17.19** μmol/L. In addition, the “Blood/serum UA level change in words” value in data set [1] (in comparison with Model control group, 30 d oral administration) is on record as “significant reduction”. Also, the “General status observation (appearance, activities, excrement characters)” value in data set [1] (in comparison with Model control group, observed daily) is “no significant difference”. The 10 d weight in data set [2] (body weight after 10 days) is listed as 185.7 ± 15.9 g. Besides, the 20 d weight in data set [2] (body weight after 20 days) amounted to 224.2 ± 21.8 g.
